Legend:
[1] = biological target: T1, Tankyrase 1 (TNKS1) (Homo sapiens, UniProt O95271); experiment: μHTS-TNKS-IWR2 TR-FRET Binding Assay (Example 71), TNKS1
T1 construct: His6-TNKS1, MW=28.2 KDa (construct: 1088-1327, 1266M)
Method: (§1) μHTS-TNKS-IWR2 TR-FRET Binding Assay (10 μL/well in BD1536-well plate, a single point)
(§2) Assay buffer 1a (AB1a) for TNKS dilution: 50 mM Tris, pH 7.4, 100 mM sodium chloride solution, 1 mM magnesium chloride solution, 1 mM DL-dithiothreitol solution, 0.2 mg/mL bovine serum albumin solution, 0.025% NP-40. Assay buffer 1b (AB 1b) for Biotin-IWR2 dilution: 50 mM Tris, pH 7.4, 100 mM sodium chloride solution, 1 mM magnesium chloride solution, 1 mM DL-dithiothreitol solution, 0.2 mg/mL bovine serum albumin solution, 0.05% NP-40 Assay buffer 1c (AB 1c) for compound dilution: 50 mM Tris, pH 7.4, 100 mM sodium chloride solution, 1 mM magnesium chloride solution, 1 mM DL-dithiothreitol solution, 0.2 mg/mL bovine serum albumin solution Assay buffer 2 (AB2) for Eu/APC: 50 mM Tris, pH 7.4, 100 mM sodium chloride solution, 1 mM magnesium chloride solution, 0.2 mg/mL bovine serum albumin solution
(§3) Transfer 3 μL/well of above solution (solution 1,2,3) to an empty assay plate (BD1536-well plate) as follows: TOTAL and cpd wells: Solution 1 (Biotin-IWR2): BLANK wells: Solution 2 (No Biotin-IWR2): POSITIVE CONTROL wells: Solution 3 (Biotin-IWR2XAV939) Transfer 3 μL/well of the above diluted compound solutions or compound dilution buffer to the above assay plate. Add 2 μL/well of 300 nM TNKS stock solution (4) to every well in the above assay plate. Centrifuge the assay plate at 2100 rpm for 2 min. Incubate the assay plate at 26° C. for 30 minutes. Add 2 μL/well 3.5 nMEu/50 nM APC solution (5) to every well in the above assay plate. Centrifuge the assay plate at 2100 rpm for 2 min. Incubate the assay plate at 26° C. for 60 min.

[2] = biological target: T2, tankyrase 2 (His6-TNKS2) (Homo sapiens, UniProt Q9H2K2); experiment: μHTS-TNKS-IWR2 TR-FRET Binding Assay (Example 71), TNKS2; conditions: footnote 1: Tankyrase 1 and 2 inhibition assay in Example 71 (TR-FRET)
T2 construct: His6-tankyrase 2 (construct: 934-1166) (His6-TNKS2)
T2 sequence (Q9H2K2 934-1166): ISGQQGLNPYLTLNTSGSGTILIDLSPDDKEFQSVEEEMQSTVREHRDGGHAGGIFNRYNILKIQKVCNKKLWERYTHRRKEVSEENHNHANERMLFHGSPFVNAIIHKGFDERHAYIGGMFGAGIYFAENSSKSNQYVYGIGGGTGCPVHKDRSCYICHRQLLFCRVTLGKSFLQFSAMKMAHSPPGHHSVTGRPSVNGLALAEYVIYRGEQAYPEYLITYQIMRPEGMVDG
Method: as §1
Biotin-4-((1S,2R,6S,7R)-3,5-Dioxo-4-aza-tricyclo[5.2.1.0*2,6*]dec-8-en-4-yl)-N-(4-methyl-quinolin-8-yl)-benzamide (Biotin-IWR2): 10 mM Biotin-IWR2 stock in DMSO, stored at −20° C. Positive control: 10 mM 2-(4-Trifluoromethyl-phenyl)-3,5,7,8-tetrahydro-thiopyrano[4,3-d]pyrimidin-4-one (XAV939) in DMSO, stored at −20° C.
as §2, §3

[3] = biological target: T3, PARP1 (His6-PARP1, full length) (Homo sapiens, UniProt P09874); experiment: TR-FRET Binding Assay (Example 71), PARP1; conditions: TR-FRET assay of Example 71 with His6-PARP1
T3 construct: His6-PARP1 (full length) can be substituted for His6-TNKS 1
T3 sequence (P09874 whole entry, species assumed): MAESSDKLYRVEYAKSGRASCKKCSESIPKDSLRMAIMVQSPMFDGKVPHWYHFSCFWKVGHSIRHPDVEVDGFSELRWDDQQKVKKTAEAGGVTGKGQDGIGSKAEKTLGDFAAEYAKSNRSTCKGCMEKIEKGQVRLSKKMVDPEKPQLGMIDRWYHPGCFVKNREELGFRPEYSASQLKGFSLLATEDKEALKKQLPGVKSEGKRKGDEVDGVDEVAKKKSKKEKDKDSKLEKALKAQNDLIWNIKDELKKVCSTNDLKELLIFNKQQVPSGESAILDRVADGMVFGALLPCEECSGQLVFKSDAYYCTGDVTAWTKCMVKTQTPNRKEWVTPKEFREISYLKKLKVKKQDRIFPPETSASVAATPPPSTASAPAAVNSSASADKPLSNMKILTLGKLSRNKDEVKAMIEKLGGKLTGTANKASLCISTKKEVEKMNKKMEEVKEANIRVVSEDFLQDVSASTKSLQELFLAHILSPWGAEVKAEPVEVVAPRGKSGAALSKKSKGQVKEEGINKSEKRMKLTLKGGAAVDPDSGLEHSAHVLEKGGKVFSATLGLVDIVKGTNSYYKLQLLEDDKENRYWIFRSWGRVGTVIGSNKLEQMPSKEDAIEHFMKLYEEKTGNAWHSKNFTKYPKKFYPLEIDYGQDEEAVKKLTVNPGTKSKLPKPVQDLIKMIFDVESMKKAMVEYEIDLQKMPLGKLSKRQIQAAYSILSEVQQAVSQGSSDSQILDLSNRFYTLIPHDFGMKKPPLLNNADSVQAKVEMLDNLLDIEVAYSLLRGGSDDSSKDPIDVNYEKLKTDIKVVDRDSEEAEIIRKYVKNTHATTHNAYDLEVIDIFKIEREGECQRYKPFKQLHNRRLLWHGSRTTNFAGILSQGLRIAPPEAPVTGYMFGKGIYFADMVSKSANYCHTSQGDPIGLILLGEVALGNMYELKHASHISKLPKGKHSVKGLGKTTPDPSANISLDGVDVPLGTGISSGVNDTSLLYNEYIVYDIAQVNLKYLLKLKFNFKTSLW
Method: as §1
Tankyrase 1 (TNKS1): 184.3 μM=5.2 mg/mL His6-TNKS1, MW=28.2 KDa (construct: 1088-1327, 1266M) in 20 mM Tris pH 8, 150 mM NaCl, 10% glycerol, and 0.5 mM TCEP. Alternatively, His6-tankyrase 2 (construct: 934-1166) (His6-TNKS2) or His6-PARP1 (full length) can be substituted for His6-TNKS 1.
as §2
Prepare Biotinylated IWR2 stock solution (3.33× stock) for TOTL and compound wells: 200 nM Biotin-IWR2 in 5% DMSO/AB1b buffer
Prepare BLANK well stock solution: 5% DMSO/AB1b buffer Prepare POSITIVE CONTROL well stock solution (3.33× stock): 200 nM XAV939 in 200 nM Biotin-IWR2/5% DMSO/AB1b buffer Prepare TNKS1 stock solution (5× stock): 300 nM TNKS in AB1a buffer. (Alternatively, use TNKS2 or PARP1 stock solutions.) Prepare Eu/APC stock solution (5× stock): 3.5 nM Eu-SA/50 nM APC-His6Ab in AB2 buffer.
Add 25 μL/well 1.5% DMSO/AB1c buffer in each compound well to the compound concentration at 74 μM in 8.8% DMSO/AB1c buffer or in the 2 μL DMSO CONTROL wells (BLANK, TOTAL and POSITIVE wells) in the compound plate. Transfer 3 μL/well of above solution (solution 1,2,3) to an empty assay plate (BD1536-well plate) as follows: TOTAL and cpd wells: Solution 1 (Biotin-IWR2): BLANK wells: Solution 2 (No Biotin-IWR2): POSITIVE CONTROL wells: Solution 3 (Biotin-IWR2XAV939) Transfer 3 μL/well of the above diluted compound solutions or compound dilution buffer to the above assay plate. Add 2 μL/well of 300 nM TNKS stock solution (4) to every well in the above assay plate. Centrifuge the assay plate at 2100 rpm for 2 min. Incubate the assay plate at 26° C. for 30 minutes. Add 2 μL/well 3.5 nMEu/50 nM APC solution (5) to every well in the above assay plate. Centrifuge the assay plate at 2100 rpm for 2 min. Incubate the assay plate at 26° C. for 60 min. Read the assay plate immediately at excitation wavelength of 330 nm and emission wavelength of […] in time resolved fluorescence mode.
. Representative compound data for the PARP1 assay is in TABLE 2 (below) Values are in μM.

T1 sequence (O95271 1088-1327): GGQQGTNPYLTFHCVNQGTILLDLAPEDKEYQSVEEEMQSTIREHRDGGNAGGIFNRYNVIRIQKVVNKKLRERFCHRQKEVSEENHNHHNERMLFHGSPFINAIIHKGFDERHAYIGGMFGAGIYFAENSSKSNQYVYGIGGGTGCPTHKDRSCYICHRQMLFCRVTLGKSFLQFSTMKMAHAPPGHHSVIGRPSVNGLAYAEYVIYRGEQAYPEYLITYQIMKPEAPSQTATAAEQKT

| Compound | IC50 [1] [nM] | IC50 [2] [nM] | IC50 [3] [nM] |
| --- | --- | --- | --- |
| CC(C)(C)OC(=O)N1CCC(C2Cc3[nH]c(=O)c4ccccc4c3CO2)C1 (stereo not drawn) [Compound I-35, 3-(9-Oxo-1,4,9,10-tetrahydro-2H-3-oxa-10-aza-phenanthren-2-yl)-pyrrolidine-1-carboxylic acid tert-butyl ester] | 37.9 | 56 | 69.9 |
| COC(=O)c1ccc2c(=O)[nH]c3c(c2c1)COC(C(C)C)C3 (racemic) [Compound I-19, rac-2-Isopropyl-9-oxo-1,4,9,10-tetrahydro-2H-3-oxa-10-aza-phenanthrene-6-carboxylic acid methyl ester] | 84.1 | 386 | 73.5 |
| O=c1[nH]c2c(c3ccccc13)COC(C1CCOCC1)C2 (racemic) [Compound I-47, rac-2-(Tetrahydro-pyran-4-yl)-1,2,4,10-tetrahydro-3-oxa-10-aza-phenanthren-9-one] | 32.4 | 36.8 | 63.6 |
| CC1(C2Cc3[nH]c(=O)c4ccccc4c3CO2)CCCCC1 (racemic) [Compound I-20, rac-2-(1-Methyl-cyclohexyl)-1,2,4,10-tetrahydro-3-oxa-10-aza-phenanthren-9-one] | 25.5 | 30.5 | 61.1 |
| O=c1[nH]c2c(c3ccccc13)COC1(CCCC1)C2 [Compound I-9, 1,5′-Dihydrospiro[cyclopentane-1,3′-pyrano[4,3-c]isoquinolin]-6′(4′H)-one] | 72.9 | 144 | 2270 |
| CC(=O)N1CCC(C2Cc3[nH]c(=O)c4ccccc4c3CO2)CC1 (racemic) [Compound I-25, rac-2-(1-Acetyl-piperidin-4-yl)-1,2,4,10-tetrahydro-3-oxa-10-aza-phenanthren-9-one] | 25.5 | 27 | 67.7 |
| Cc1cccc2c(=O)[nH]c3c(c12)COC(C(C)(C)COCc1ccccc1)C3 (stereo not drawn) [Compound I-68, 3-(2-benzyloxy-1 1-dimethyl-ethyl)-10-methyl-1 3 4 5-tetrahydropyrano[4 3-c]isoquinolin-6-one] | 28 | 28.7 | 26 |
| CC(C)C1Cc2[nH]c(=O)c3ccsc3c2CO1 (racemic) [Compound I-28, rac-7-Isopropyl-5,6,7,9-tetrahydro-8-oxa-1-thia-5-aza-cyclopenta[a]naphthalen-4-one] | 81.8 | 177 | 1920 |
| O=C(C1CC1)N1CCC(C2Cc3[nH]c(=O)c4ccccc4c3CO2)CC1 (racemic) [Compound I-33, rac-2-(1-Cyclopropanecarbonyl-piperidin-4-yl)-1,2,4,10-tetrahydro-3-oxa-10-aza-phenanthren-9-one] | 36.5 | 52 | 94.8 |
| CC(C)C1Cc2[nH]c(=O)c3ccc(N)cc3c2CO1 (racemic) [Compound I-24, rac-6-Amino-2-isopropyl-1,2,4,10-tetrahydro-3-oxa-10-aza-phenanthren-9-one] | 473 | 1300 | 63.4 |
| CC(C)(C)OC(=O)N1CCC(C2Cc3[nH]c(=O)c4cccnc4c3CO2)CC1 (stereo not drawn) [Compound I-51, tert-butyl 4-(5-oxo-6 7 8 10-tetrahydropyrano[4 3-h][l 6]naphthyridin-8-yl)piperidine-1-carboxylate] | 39 | 49.8 | 363 |
| CC(C)C1Cc2[nH]c(=O)c3ccc(Cl)cc3c2CO1 (racemic) [Compound I-27, rac-6-Chloro-2-isopropyl-1,2,4,10-tetrahydro-3-oxa-10-aza-phenanthren-9-one] | 39.1 | 53.5 | 197 |
| CC(C)C1Cc2[nH]c(=O)c3ccncc3c2CO1 (racemic) [Compound I-14, rac-7-Isopropyl-5,7,8,9-tetrahydro-6-oxa-3,9-diaza-phenanthren-10-one] | 97.2 | 204 | 680 |
| CC(C)C1Cc2[nH]c(=O)c3sccc3c2CO1 (racemic) [Compound I-5, rac-7-Isopropyl-5,6,7,9-tetrahydro-8-oxa-3-thia-5-aza-cyclopenta[a]naphthalen-4-one] | 70.3 | 92.1 | 82.9 |
| CC(C)C1Cc2[nH]c(=O)c3ccc([N+](=O)[O-])cc3c2CO1 (racemic) [Compound I-16, rac-2-Isopropyl-6-nitro-1,2,4,10-tetrahydro-3-oxa-10-aza-phenanthren-9-one] | 404 | 2700 | 35.6 |
| O=c1[nH]c2c(c3ccccc13)COCC2 [Compound I-3, 1,2,4,10-Tetrahydro-3-oxa-10-aza-phenanthren-9-one] | 421 | 636 | 281 |
| O=c1[nH]c2c(c3ccccc13)COC(CCc1ccccc1)C2 (racemic) [Compound I-13, rac-2-Phenethyl-1,2,4,10-tetrahydro-3-oxa-10-aza-phenanthren-9-one] | 40.8 | 52.1 | 2670 |
| CC(C)(C)OC(=O)N1CCC([C@H]2Cc3[nH]c(=O)c4ccccc4c3CO2)CC1 (single isomer, unassigned) [Compound I-55] | 43.2 | 99.2 | 125 |
| O=c1[nH]c2c(c3ccccc13)COC(C1CCCC1)C2 (racemic) [Compound I-7, rac-2-Cyclopentyl-1,2,4,10-tetrahydro-3-oxa-10-aza-phenanthren-9-one] | 34.2 | 43 | 119 |
| Cc1cncc2c(=O)[nH]c3c(c12)COC(C(C)(C)C)C3 (racemic) [Compound I-58, rac-7-tert-Butyl-4-methyl-5,7,8,9-tetrahydro-6-oxa-2,9-diaza-phenanthren-10-one] | 25.9 | 25.7 | 328 |
| Cc1cccc2c(=O)[nH]c3c(c12)COC(C1CCN(C(=O)OC(C)(C)C)CC1)C3 (racemic) [Compound I-62, rac-4-(5-Methyl-9-oxo-1,4,9,10-tetrahydro-2H-3-oxa-10-aza-phenanthren-2-yl)-piperidine-1-carboxylic acid tert-butyl ester] | 26.5 | 23.7 | 38.1 |

Reference: US20140121231A1, “PYRANOPYRIDONE INHIBITORS OF TANKYRASE” (Hoffmann-La Roche, Inc., priority 2012, published 2014)
